Results as given in PubChem BioAssay (NCI).
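Protocol summary: plate cells (96-well), add compound at 5 concentrations, incubate 48 h, interpolate endpoints linearly. GI50 = concentration required for 50% inhibition of growth. At the TGI there is no net growth.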

Experiments:
Experiment in all cases: NCI-60 cell line screen, 48 h
HT29 colon = tested on: HT29 colon
MDA-MB-435 = tested on: MDA-MB-435
SF-295 CNS = tested on: SF-295 CNS
MDA-N = tested on: MDA-N
ACHN renal = tested on: ACHN renal
OVCAR-3 ovarian = tested on: OVCAR-3 ovarian
LOX IMVI melanoma = tested on: LOX IMVI melanoma
HS 578T breast = tested on: HS 578T breast
HL-60(TB) leukemia = tested on: HL-60(TB) leukemia

Compound	TGI (HT29 colon) [µM]	TGI (MDA-MB-435) [µM]	TGI (SF-295 CNS) [µM]	TGI (MDA-N) [µM]	TGI (ACHN renal) [µM]	TGI (OVCAR-3 ovarian) [µM]	TGI (LOX IMVI melanoma) [µM]	TGI (HS 578T breast) [µM]	TGI (HL-60(TB) leukemia) [µM]	GI50 (HT29 colon) [nM]	GI50 (MDA-MB-435) [nM]	GI50 (SF-295 CNS) [nM]	GI50 (ACHN renal) [nM]	GI50 (OVCAR-3 ovarian) [nM]	GI50 (HL-60(TB) leukemia) [µM]	GI50 (HS 578T breast) [nM]	GI50 (LOX IMVI melanoma) [nM]
CN(C)CCOC(=O)COc1ccc(Cl)cc1	> 100	> 100	> 100	> 100	> 100	> 100	> 100										
O=C(Nn1c(-c2ccccc2)nc2ccccc2c1=O)c1ccccn1	> 100	> 100	> 100		> 100	> 100	> 100	> 100	> 100								
O=C(O)C(CCc1ccccn1)c1ccccc1 (stereo not given)	> 100	> 100	> 100	> 100	> 100	> 100	> 100	> 100	> 100								
COc1ccc(C(O)c2ccc3c(c2)OCO3)cc1 (stereo not given)	> 100	> 100	> 100	> 100	> 100	> 100	> 100		> 100								
O=C(c1ccccc1)c1c(C(F)(F)F)n([O-])c2ccccc2[n+]1=O	2.23					1.41	> 100	> 100	1.42								
CCOC(=O)c1cc2c(OC(C)=O)ccc(OC(C)=O)c2s1	10.7	7.38	18.3		2.98	3.15	3.09	5.51	2.97								
Cn1c(=O)c2c(-c3ccccc3)onc2n(C)c1=O	> 100	> 100	> 100	> 100	> 100	53.1	70.1	75.6									
CN(CCc1ccc(Cl)c(Cl)c1)[C@H]1CCCC[C@H]1N1CCCC1	> 100	> 100	> 100	> 100	> 100	> 100	> 100	> 100	> 100								
Cc1cccc(C(C)(C)C)c1NC(=O)/C(Cc1nc2ccc([N+](=O)[O-])cc2[nH]c1=O)=N/NC(=O)C[N+](C)(C)C	> 100	> 100	> 100	> 100	> 100	> 100	> 100	> 100	> 100								
CCCCC[C@@H]1OCO[C@@]2(C)/C=C(C)/C=C/C(=O)O[C@H]([C@@H](C)[C@@H](O)[C@H](C)[C@@]3(O)C[C@@H](O[C@H]4C[C@@H](O)[C@H](O)[C@@H](C)O4)[C@H](C)[C@@H](C)O3)[C@@H](OC)/C=C/C=C(\C)C[C@@H]1[C@@H]2O (stereo in doubt)	0.0544	0.541	0.0563	0.203	1.33	2.46		50	0.0587								
COc1cc2cc(C(=O)N3CC(CCl)c4c3cc(N)c3ccccc43)[nH]c2cc1OCCN(C)C (stereo not given)	5.17	< 0.005				0.0209		0.125									
CC(=O)O[C@H]1C#C/C=C\C#CC[C@@H]2C(=O)N(C(=O)OC(C)(C)C)[C@@H]12	> 100	> 100	> 100	> 100	28.8	98.3	45.3	> 88.7	25.6								
COC(=O)c1sc(=S)sc1SCc1ccccc1CSc1sc(=S)sc1C(=O)OC	> 100	> 100	> 100	> 100	> 100	> 100	> 100	> 100									
O=C1/C(=C/c2ccccc2)CCc2ccc(Cl)nc21	3.78	30.4	38.2	18.5	27.4	46.9			0.705								
O=C1c2[nH]cc(CN3CCNCC3)c2C(=O)c2c1c(O)c1ccccc1c2O	> 100	4.59	3.37		3.37	4.05			> 100	2440	2540	1740	1570	1770	22		
Clc1nc(-[n+]2ccc(-c3ccncc3)cc2)nc(Nc2ccccc2)c1Cl	> 100	> 100		> 100	> 100	> 100	> 100	> 100	> 100								
N#Cc1c(Nc2ccc(F)cc2)[n+]([O-])c2ccc(Cl)cc2[n+]1[O-]	> 100	> 100	4.95	> 100		13.3	4.27	> 100									
CC(NC(=O)/C(=C/c1ccccc1O)NC(=O)c1ccccc1)C(=O)O (stereo not given)	> 100	> 100	38.8	> 100	33.2		> 100	38.2	> 100								
COc1ccc(C2(c3ccc(OC)cc3)OC(=O)c3cccc4cccc2c34)cc1	5.98	> 100	> 100		> 100	> 100	> 100	97.4									
CCc1nnc(-n2c(C)nc3cc(Cl)ccc3c2=O)s1	> 100	> 100	> 100	49.1	> 100	43	> 100	> 100	> 100								
CC(CCC(=O)O)[C@H]1CCC2[C@H]3C(CC[C@@]21C)[C@@]1(C)CCC(O)C[C@H]1C[C@@H]3O (stereo not given in full)	> 100	> 100		> 100	> 100		> 100		> 100								
N#Cc1c(NC(=O)c2ccccc2)sc2c1CCC(=O)C2	> 100	3.6	6.83		2.3	2.43	5.97	7.32	2.96	747	594	1960	906	1040	0.309	1920	821
O=C1NC(=S)N/C1=C/c1ccccc1O	> 100	> 100	> 100	> 100	> 100	> 100	> 100	> 100	> 100								
C/C(=C/CO[Si](C)(C)C(C)(C)C)C(=O)N(C)c1ccccc1I	22.6	33.7	31.5	31.9	31	31.3	31.8	43.5	32								
CC1=C(C(=O)OCCc2ccc([N+](=O)[O-])cc2)C(c2ccccc2[N+](=O)[O-])C(C(=O)OC(C)C)=C(C)N1 (stereo not given)	> 100	> 100	> 100	> 100	> 100	> 100	> 100	> 100	8.48								

Compound	TGI (HT29 colon) [µM]	TGI (MDA-MB-435) [µM]	TGI (SF-295 CNS) [µM]	TGI (MDA-N) [µM]	TGI (ACHN renal) [µM]	TGI (OVCAR-3 ovarian) [µM]	TGI (LOX IMVI melanoma) [µM]	TGI (HS 578T breast) [µM]	TGI (HL-60(TB) leukemia) [µM]	GI50 (HT29 colon) [nM]	GI50 (MDA-MB-435) [nM]	GI50 (SF-295 CNS) [nM]	GI50 (ACHN renal) [nM]	GI50 (OVCAR-3 ovarian) [nM]	GI50 (HL-60(TB) leukemia) [µM]	GI50 (HS 578T breast) [nM]	GI50 (LOX IMVI melanoma) [nM]
O=C(O)/C=C(/CC(=O)O)C(=O)O	59.2	42.6	37.8	54.6	33.3	34.5	47.1	40.7	42.9								
CC[C@]12C=CCN3CCC4(c5cc(N=Nc6ccccc6)c(OC)cc5N(C)[C@H]4[C@@](O)(C(=O)OC)[C@@H]1OC(C)=O)[C@@H]32 (stereo not given in full)	33.8	37.9	34.5	35.8	30.1	28.1	33	39	38.1								
Cc1cc2ccccc2n1CC(=O)NCC(C)C	> 100	> 100	> 100	> 100	> 100	> 100	> 100	> 100	> 100								
Cc1cc(Cc2c(F)c(F)c(Cc3cc(C)no3)c(F)c2F)on1	> 100	> 100	> 100	> 100	> 100	> 100	> 100	> 100	> 100								
CC(=O)/C=C/C=C(\C)CC/C=C(\C)CC(C)C	> 100	77.1	> 100	> 100	> 100	78.7	34	> 100	33.4								
COC(=O)c1ccc(-c2nc(C#N)c(N)o2)cc1	> 100	> 100	> 100		> 100	> 100	> 100	> 100									
CCCn1c(C23CC4CC(CC(C4)C2)C3)nc2ccc(Cl)cc2c1=O	80.2	> 100	> 100	> 100	47.9	> 100	> 100	> 100	> 100								
N#CCCC1C(C#N)C2CC1C1C3C=CC(C3)C21 (stereo not given)	> 100	> 100	> 100	> 100	> 100	> 100	> 100	> 100	> 100								
C#CCNC(Cc1cnc[nH]1)C(=O)O (stereo not given)	> 100	> 100	> 100	> 100	> 100	> 100	> 100	> 100	> 100								
O=C(/C=C/c1ccc(-c2ccccc2[N+](=O)[O-])o1)NCc1ccc(C(=O)NCCc2ccccc2)cc1	> 100	> 100	> 100		> 100	> 100	> 100	> 100									
O=C(c1ccc2ccccc2c1)C1S(=O)(=O)OCCOS1(=O)=O	> 100	> 100	> 100	> 100	> 100	> 100	> 100		> 100								
COc1ccc(/C=C/c2cc(O)cc(OC)c2)cc1	> 100	> 100	> 100		> 100	> 100		> 100	> 100								
Cc1nnc2cc(C(=O)O)c3ccccc3n2c1=O	> 10	> 10	> 10	> 10		> 10	> 10	> 10	> 10								
S=C(N/N=C\C=N/NC(=S)N1CCCCCC1)N1CCCCCC1	> 100	> 100	> 100	> 100	> 100	> 100	> 100	> 100									
CC(C)CCC[C@@H](C)[C@H]1CC[C@H]2[C@@H]3CC=C4C[C@@H](OC(=O)c5cccc6c(=O)c7ccccc7[nH]c56)CC[C@]4(C)[C@H]3CC[C@]12C	> 75	> 75	> 75	> 75	> 75	> 75	> 75	> 75									
CC1(C)COC(c2cccc(C3=NC(C)(C)CO3)c2Br)=N1	> 100	> 100			> 100		> 100		> 100								
CCOC(=O)c1ccc2nc(NC(=O)COC(=O)CSc3nc(C)cc(C)n3)sc2c1	> 100	> 100	> 100		> 100	91.5	> 100	> 100	33.9								
Nc1ccc2c(c1)C(=O)c1ccccc1-2	> 100	> 100	> 100		> 100	> 100	> 100	> 100	> 100								
Cc1cc(S(=O)(=O)Nc2nnc3c(C(F)(F)F)cc(Cl)cn23)c(S)cc1Cl	> 100	> 100		> 100	> 100	> 100	> 100	> 100	> 100								
CC(C)(CO)CNc1nc(N)nc(Cl)c1N	> 100	> 100	> 100	> 100	> 100	> 100	> 100	> 100									
Nc1nc(Cl)cc(N=Nc2ccccc2)n1	> 100	> 100	> 100		97.2	30.3	67	> 100	75								
c1ccc(CCN2CCCCCC2)nc1	> 100	> 100	> 100		> 100	> 100	> 100	> 100									
OC(c1ccc(Cl)cc1)(c1ccc(Cl)cc1)C(O)(c1ccc(Cl)cc1)c1ccc(Cl)cc1	> 100	> 100								1720	2940						
CN=C(Nn1cnnc1)OC	> 100	> 100	> 100	> 100	> 100	> 100		> 100									
